From ChEMBL document CHEMBL1145207, “Discovery of novel quinoline-based estrogen receptor ligands using peptide interaction profiling” (J Med Chem, 2005) come the findings set out here.

Assay [1] addresses T1, Estrogen receptor beta (Homo sapiens, UniProt Q92731).
For assay [2], the target named is T2, Estrogen receptor (Homo sapiens, UniProt P03372).
T2 sequence (P03372 whole entry): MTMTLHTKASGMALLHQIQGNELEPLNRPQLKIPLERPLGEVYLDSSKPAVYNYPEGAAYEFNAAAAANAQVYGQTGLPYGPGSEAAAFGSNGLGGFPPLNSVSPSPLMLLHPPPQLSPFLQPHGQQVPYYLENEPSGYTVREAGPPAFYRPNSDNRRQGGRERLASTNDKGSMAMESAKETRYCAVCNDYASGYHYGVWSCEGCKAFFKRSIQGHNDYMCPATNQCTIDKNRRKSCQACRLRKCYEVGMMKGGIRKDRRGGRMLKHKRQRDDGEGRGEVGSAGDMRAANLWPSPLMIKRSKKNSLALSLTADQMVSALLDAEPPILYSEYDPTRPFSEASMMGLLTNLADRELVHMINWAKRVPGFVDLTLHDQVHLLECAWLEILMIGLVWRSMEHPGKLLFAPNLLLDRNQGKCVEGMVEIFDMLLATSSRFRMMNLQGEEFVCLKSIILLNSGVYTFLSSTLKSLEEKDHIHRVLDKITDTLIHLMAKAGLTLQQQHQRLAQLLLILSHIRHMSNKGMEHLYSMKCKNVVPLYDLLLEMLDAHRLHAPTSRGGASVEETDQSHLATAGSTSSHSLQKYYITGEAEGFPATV
Description: Binding affinity for human estrogen receptor alpha

Assay [3] deals with T3, Estrogen receptor (Homo sapiens) (UniProt P03372).
T3 sequence (whole entry): T2 sequence (P03372 whole entry)
Description: Mean fluorescence intensity corrected to basal for GW-5638 selective peptide binding to human estrogen receptor alpha

The target in assay [4] is Estrogen receptor (Homo sapiens, UniProt Q92731+P03372). The conditions noted are these: ishikawa.
The target in assay [5] is T1, Estrogen receptor beta. Nature of the assay: Binding affinity for human estrogen receptor beta.

As usually defined, the Ki is the dissociation constant of the complex between target and ligand, obtained from inhibition or displacement. Read a high Ki as a looser hold on the target.

T1 sequence (Q92731 whole entry): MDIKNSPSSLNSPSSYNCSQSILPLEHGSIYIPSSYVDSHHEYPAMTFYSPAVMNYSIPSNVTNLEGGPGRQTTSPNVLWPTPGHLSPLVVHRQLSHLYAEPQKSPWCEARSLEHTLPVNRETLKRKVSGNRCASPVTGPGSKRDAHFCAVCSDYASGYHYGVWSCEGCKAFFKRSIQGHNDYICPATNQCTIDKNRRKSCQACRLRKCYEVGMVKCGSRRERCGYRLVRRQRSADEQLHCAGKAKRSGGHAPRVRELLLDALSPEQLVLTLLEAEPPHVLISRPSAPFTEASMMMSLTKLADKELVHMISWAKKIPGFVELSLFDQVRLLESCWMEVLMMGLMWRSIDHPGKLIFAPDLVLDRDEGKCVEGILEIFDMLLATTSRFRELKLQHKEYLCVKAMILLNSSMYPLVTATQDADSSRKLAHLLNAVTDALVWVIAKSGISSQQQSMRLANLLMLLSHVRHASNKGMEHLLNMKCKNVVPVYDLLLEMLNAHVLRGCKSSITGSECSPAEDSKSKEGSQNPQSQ

Consider `CCc1nc2cc(O)ccc2c(Oc2ccc(OCCN(C)C)cc2)c1-c1ccccc1`, for which the inhibition constant Ki on Estrogen receptor beta [1] was 10 nM; on Estrogen receptor [2] it was 7.94 nM. For the same compound, the MFI in assay [3] came to 0. The “Log IC50” value on Estrogen receptor [4] is on record as -8.5.
Consider `CCc1nc2cc(O)ccc2c(Oc2ccc(/C=C/C(=O)NC(C)C)cc2)c1-c1ccccc1`, for which the Ki was 15.8 nM on Estrogen receptor beta [1] and 10 nM on Estrogen receptor [2]. Besides, the MFI in assay [3] was found to be 710. At Estrogen receptor [4], the “Log IC50” value is given as -7.7.
In assay [3], `CCc1nc2cc(O)ccc2c(Oc2ccc(/C=C/C(=O)O)cc2)c1-c1ccccc1` returned an MFI of 1380.
Regarding `CCc1nc2cc(O)ccc2c(Oc2ccc(/C=C/C(=O)N3CCCCC3)cc2)c1-c1ccccc1`, the inhibition constant Ki at Estrogen receptor beta [1] and at Estrogen receptor [2] was 25.1 nM in each case. In assay [3], this compound gave an MFI of 390. Further, the “Log IC50” value on Estrogen receptor [4] is reported as -8.4.
For `CCc1nc2cc(O)ccc2c(Oc2cccc(/C=C/C(=O)O)c2)c1-c1ccccc1`, the Ki at Estrogen receptor beta [5] and at Estrogen receptor [2] was 1580 nM each time.
Take `CCc1nc2cc(O)ccc2c(Oc2ccc(/C=C/C(=O)N(C)C)cc2)c1-c1ccccc1`: the inhibitory constant (Ki) on Estrogen receptor beta [1] is 20 nM; on Estrogen receptor [2], 10 nM. In assay [3], this compound registered an MFI of 350. The “Log IC50” value on Estrogen receptor [4] was -8.4.
In the case of `O=C(O)/C=C/c1ccc(Oc2c(-c3ccccc3)c(-c3ccccc3)nc3cc(O)ccc23)cc1`, the results for the inhibition constant (Ki) at Estrogen receptor beta [1] and on Estrogen receptor [2] were 631 nM and 3160 nM, respectively. For the same compound, on Estrogen receptor [4], the “Log IC50” value is on record as -5.6.
In assay [3], `CC/C(=C(\c1ccc(O)cc1)c1ccc(/C=C/C(=O)O)cc1)c1ccccc1` gave an MFI of 1320.
With `CCc1nc2cc(O)ccc2c(Oc2ccc(/C=C/C(=O)O)cc2)c1-c1cccc(C(F)(F)F)c1`, the inhibition constant (Ki) at Estrogen receptor beta [1] is 251 nM; on Estrogen receptor [2], 100 nM. In assay [3], this compound yielded an MFI of 1590. For the same compound, the “Log IC50” value at Estrogen receptor [4] is -8.1.
On to `CCc1nc2cc(O)ccc2c(Oc2ccc(/C=C/C(N)=O)cc2)c1-c1ccccc1`, for which the Ki was 25.1 nM on Estrogen receptor beta [1] and 15.8 nM on Estrogen receptor [2]. Also, the MFI in assay [3] is 540. For the same compound, the “Log IC50” value at Estrogen receptor [4] is -7.1.
